Values quoted from earlier work, collected in publication PMC6311893, “Computational prediction of plasma protein binding of cyclic peptides from small molecule experimental data using sparse modeling techniques” (BMC Bioinformatics, 2018).
Where two headings read alike, the source gives them in different places.

Test system: plasma protein
Conditions: cited from earlier work
[1] = fraction bound to plasma protein, small molecule dataset, sheet 1-SM, Set Dtr, ref Ingle et al.
[2] = fraction bound to plasma protein, small molecule dataset, sheet 1-SM (Set Dte = test, Dtr = training), ref Ingle et al.
[3] = fraction bound to plasma protein, small molecule dataset, sheet 1-SM, ref Ingle et al.

Structure (SMILES) | PPB (fb) [1] | further results
CNCCCN1c2ccccc2CCc2ccccc21 [Desipramine] | 0.85 | –
C[C@@H]1C[C@H]2[C@@H]3CCC4=CC(=O)C=C[C@]4(C)[C@@]3(F)[C@@H](O)C[C@]2(C)[C@@]1(O)C(=O)CO [Dexamethasone] | 0.68 | –
CCN[C@@H](C)Cc1cccc(C(F)(F)F)c1 [Dexfenfluramine] | – | PPB (fb) (plasma): 0.34
CCCCCN(CCCOC)C(=O)[C@@H](CCC(=O)O)NC(=O)c1ccc(Cl)c(Cl)c1 [Dexloxiglumide] | 0.98 | –
Cc1cccc([C@H](C)c2cnc[nH]2)c1C [Dexmedetomidine] | 0.94 | –
C[C@@H](CN1CC(=O)NC(=O)C1)N1CC(=O)NC(=O)C1 [Dexrazoxane] | 0.01 | –
CC(=O)Nc1c(I)c(NC(C)=O)c(I)c(C(=O)O)c1I [Diatrizoic Acid (Amidotrizoate)] | – | PPB (fb) [2]: 0.02
CC1=NS(=O)(=O)c2cc(Cl)ccc2N1 [Diazoxide] | 0.92 | –
COc1c(Cl)ccc(Cl)c1C(=O)O [Dicamba] | 0.9 | –
O=C(O)Cc1ccccc1Nc1c(Cl)cccc1Cl [Diclofenac] | – | PPB (fb) [2]: 0.995
Cc1onc(-c2c(Cl)cccc2Cl)c1C(=O)N[C@@H]1C(=O)N2[C@@H]1SC(C)(C)[C@@H]2C(=O)O [Dicloxacillin] | 0.96 | –
O=c1[nH]cnc2c1ncn2[C@H]1CC[C@@H](CO)O1 [Didanosine] | 0.04 | –
O=C(O)c1cc(-c2ccc(F)cc2F)ccc1O [Diflunisal] | 0.99 | –
C[C@]12CC[C@H](O)C[C@H]1CC[C@@H]1[C@@H]2CC[C@]2(C)[C@@H](C3=CC(=O)OC3)CC[C@]12O [Digitoxigenin] | – | PPB (fb) (plasma): 0.93
CCC1CN2CCC1CC2[C@@H](O)c1ccnc2ccc(OC)cc12 (stereo partly shown) [Dihydroquinidine] | 0.78 | –
COc1ccc([C@@H]2Sc3ccccc3N(CCN(C)C)C(=O)[C@@H]2OC(C)=O)cc1 [Diltiazem] | 0.81 | –
CCC(C)(C)NCC(O)COc1ccccc1C(=O)CCc1ccccc1 (stereo not shown) [Diprafenone] | – | PPB (fb) [2]: 0.98
CC(C)N(CCC(C(N)=O)(c1ccccc1)c1ccccn1)C(C)C (stereo not shown) [Disopyramide] | 0.87 | –
CC(=O)O[C@@]12CO[C@@H]1C[C@H](O)[C@@]1(C)C(=O)[C@H](O)C3=C(C)[C@@H](OC(=O)[C@H](O)[C@@H](NC(=O)OC(C)(C)C)c4ccccc4)C[C@@](O)([C@@H](OC(=O)c4ccccc4)[C@H]21)C3(C)C [Docetaxel] | – | PPB (fb) [2]: 0.96
CN(CCOc1ccc(NS(C)(=O)=O)cc1)CCc1ccc(NS(C)(=O)=O)cc1 [Dofetilide] | 0.64 | –
O=c1[nH]c2ccccc2n1CCCN1CCC(n2c(=O)[nH]c3cc(Cl)ccc32)CC1 [Domperidone] | 0.92 | –
COc1cc(CC2c3c(cc(OC)c(OC)c3OC)CC[N+]2(C)CCCOC(=O)CCC(=O)OCCC[N+]2(C)CCc3cc(OC)c(OC)c(OC)c3C2Cc2cc(OC)c(OC)c(OC)c2)cc(OC)c1OC (stereo not shown) [Doxacurium] | – | PPB (fb) (plasma): 0.39
COc1cc2nc(N3CCN(C(=O)C4COc5ccccc5O4)CC3)nc(N)c2cc1OC (stereo not shown) [Doxazosin] | 0.97 | –
CN(C)CCC=C1c2ccccc2COc2ccccc21 [Doxepin] | 0.81 | –
C[C@H]1O[C@@H](n2cc(F)c(=O)[nH]c2=O)[C@H](O)[C@@H]1O [Doxifluridine] | 0.39 | –
COc1cccc2c1C(=O)c1c(O)c3c(c(O)c1C2=O)C[C@@](O)(C(=O)CO)C[C@@H]3O[C@H]1C[C@H](N)[C@H](O)[C@H](C)O1 [Doxorubicin] | 0.73 | –
CNCC[C@H](Oc1cccc2ccccc12)c1cccs1 [Duloxetine] | – | PPB (fb) [3]: 0.9
CC(=O)[C@H]1CC[C@H]2[C@@H]3CC[C@@H]4C[C@H](O)CC[C@]4(C)[C@H]3CC[C@]12C [Eltanolone] | – | PPB (fb) (plasma): 0.99

Structure (SMILES) | PPB (fb) [1] | further results
C[C@H](N[C@@H](CCc1ccccc1)C(=O)O)C(=O)N1CCC[C@H]1C(=O)O [Enalaprilat] | – | PPB (fb) [2]: 0.46
COc1ccc(C(=O)Nc2ccccc2CCC2CCCCN2C)cc1 (stereo not shown) [Encainide] | 0.72 | –
CCn1cc(C(=O)O)c(=O)c2cc(F)c(N3CCNCC3)nc21 [Enoxacin] | 0.26 | –
CCCn1c(=O)[nH]c(=O)c2[nH]cnc21 [Enprofylline] | 0.45 | –
CCN(CC)C(=O)/C(C#N)=C/c1cc(O)c(O)c([N+](=O)[O-])c1 [Entacapone] | 0.98 | –
CC(/C=C1\SC(=S)N(CC(=O)O)C1=O)=C\c1ccccc1 [Epalrestat] | – | PPB (fb) [3]: 0.9
O=C(OC1Cc2c(O)cc(O)cc2OC1c1cc(O)c(O)c(O)c1)c1cc(O)c(O)c(O)c1 (stereo not shown) [Epigallocatechin gallate] | – | PPB (fb) [3]: 0.91
COc1cccc2c1C(=O)c1c(O)c3c(c(O)c1C2=O)C[C@@](O)(C(=O)CO)C[C@@H]3O[C@H]1C[C@H](N)[C@@H](O)[C@H](C)O1 [Epirubicin] | 0.75 | –
CC(C)(C)NC(=O)[C@H]1CC[C@H]2[C@@H]3CC=C4C=C(C(=O)O)CC[C@]4(C)[C@H]3CC[C@]12C [Epristeride] | 0.97 | –
CN1C[C@H](C(=O)N[C@]2(C)O[C@@]3(O)[C@@H]4CCCN4C(=O)[C@H](Cc4ccccc4)N3C2=O)C=C2c3cccc4[nH]cc(c34)C[C@H]21 [Ergotamine] | – | PPB (fb) (plasma): 0.96
C[C@@H](O)[C@H]1C(=O)N2C(C(=O)O)=C(S[C@@H]3CN[C@H](C(=O)Nc4cccc(C(=O)O)c4)C3)[C@H](C)[C@H]12 [Ertapenem] | 0.91 | –
CC[C@H]1OC(=O)[C@H](C)[C@@H](O[C@H]2C[C@@](C)(OC)[C@@H](O)[C@H](C)O2)[C@H](C)[C@@H](O[C@@H]2O[C@H](C)C[C@H](N(C)C)[C@H]2O)[C@](C)(O)C[C@@H](C)C(=O)[C@H](C)[C@@H](O)[C@]1(C)O [Erythromycin] | 0.86 | –
COC(=O)CCc1ccc(OCC(O)CNC(C)C)cc1 (stereo not shown) [Esmolol] | 0.48 | –
C[C@]12CC[C@@H]3c4ccc(O)cc4CC[C@H]3[C@@H]1CC[C@@H]2O [Estradiol] | 0.984 | –
C#C[C@]1(O)CC[C@H]2[C@@H]3CCc4cc(OS(=O)(=O)O)ccc4[C@H]3CC[C@@]21C [Ethinylestradiol-3-Sulfate] | – | PPB (fb) (plasma): 0.99
C#C[C@]1(O)CC[C@H]2[C@@H]3CCc4cc(O)ccc4[C@H]3CC[C@@]21C [Ethinylestradiol] | 0.97 | –
CCNCC(O)c1cccc(O)c1 (stereo not shown) [Etilefrine] | – | PPB (fb) [2]: 0.24
Cc1ccc(-c2ncc(Cl)cc2-c2ccc(S(C)(=O)=O)cc2)cn1 [Etoricoxib] | 0.92 | –
O=C1[C@H](CC[C@H](O)c2ccc(F)cc2)[C@@H](c2ccc(O)cc2)N1c1ccc(F)cc1 [Ezetimibe] | – | PPB (fb) [3]: 0.9
NC(N)=Nc1nc(CSCCC(N)=NS(N)(=O)=O)cs1 [Famotidine] | 0.16 | –
CC(Cc1ccc(O)cc1)NCC(O)c1cc(O)cc(O)c1 (stereo not shown) [Fenoterol] | – | PPB (fb) (plasma): 0.47
CSc1ccc(C(=O)c2[nH]c(=O)[nH]c2C)cc1 [Fenoximone] | 0.74 | –
CN1CC[C@H](c2c(O)cc(O)c3c(=O)cc(-c4ccccc4Cl)oc23)[C@H](O)C1 [Flavopiridol] | 0.94 | –
O=C(NCC1CCCCN1)c1cc(OCC(F)(F)F)ccc1OCC(F)(F)F (stereo not shown) [Flecainide] | – | PPB (fb) [2]: 0.5
Cc1onc(-c2c(F)cccc2Cl)c1C(=O)N[C@@H]1C(=O)N2[C@@H]1SC(C)(C)[C@@H]2C(=O)O [Flucloxacillin] | 0.95 | –
OC(Cn1cncn1)(Cn1cncn1)c1ccc(F)cc1F [Fluconazole] | 0.16 | –
Nc1nc(=O)[nH]cc1F [Flucytosine] | – | PPB (fb) [2]: 0.02
